Read-outs that look alike come from different tables or passages of the source.
Assay: Solubility in water by incremental addition of water until complete solubilization
Assay type: physicochemical
Settings: for % Solubility (solids (g)/ final volume (ml)): in water at room temperature, Example 4 samples
Procedure: In Example 4, RA89.95 Stevia starting material was processed through two reflux stages of the industrial embodiment of the invention, and a sample of the final product of the industrial process used as starting material in a stirred wash stage of the laboratory embodiment of the invention. Specifically, 100 kilograms of RA90 Stevia starting material were mixed with 400 liters of 90Et/10W solvent (this experiment was conducted while the starting material assay was still being perfected) and refluxed for 1 hour at 80° C., then cooled (chilled water in tank jacket) and allowed to stand for a minimum of 2 hours with mixture temperature maintained between 4° C. and 20° C. The mixture was filtered through a centrifugal decanter, and the retentate added to 400 liters of 90Et/10W solvent and refluxed for 1 hour at 80° C. The mixture from the second reflux was filtered through a centrifugal decanter. The retentate of the filtering of the second reflux mixture was mixed with water until the volume of the mixture was approximately twice the mass of the retentate (e.g., 350 kg retentate in a total mixture volume of 700 liters). The mixture in water was heated to 80° C. for approximately one hour to purge any residual ethanol from the mixture, then the mixture was spray-dried. There was no reflux in absolute ethanol prior to spray drying. The spray-dried product was weighed and a 0.1 gram sample was analyzed for rebaudioside A content using the HPLC Method described above. Five grams of the spray-dried material was mixed with 20 mls of absolute ethanol in a 100 ml round-bottomed flask and refluxed for 1 hour at 80° C. (“refluxed sample”) and then allowed to cool to room temperature. A second 5 gram sample of the spray-dried material was mixed with 20 mls of absolute ethanol and stirred for 15 minutes at room temperature (“stirred sample”). Both samples were filtered over a Whatman GF/A glass fiber filter (1.6 μm pore size) and the retained solids of both samples were dried in a blower oven at 80° C. until the solids maintained a constant weight. 1 gram each of the refluxed sample and of the stirred sample were placed in 15 ml glass centrifuge tubes. Water was added to each tube in 0.1 ml increments and the mixture thoroughly shaken to ensure maximum solubilization. Incremental aliquots of water were added until complete solubilization was achieved as evidenced by the lack of any observable suspended solids in the solution. The final volume at which complete solubilization occurred in each sample was noted.

Row | Compound | % Solubility (solids (g)/ final volume (ml)) | solubility in water | other results
1 | C=C1C[C@@]23CC[C@H]4[C@@](C)(CCC[C@@]4(C)C(=O)O[C@@H]4O[C@H](CO)[C@@H](O)[C@H](O)[C@H]4O)[C@@H]2CC[C@]1(O[C@@H]1O[C@H](CO)[C@@H](O)[C@H](O[C@@H]2O[C@H](CO)[C@@H](O)[C@H](O)[C@H]2O)[C@H]1O[C@@H]1O[C@H](CO)[C@@H](O)[C@H](O)[C@H]1O)C3 [1 hour reflux in 100% ethanol, rebaudioside A] | 40% |  | % Solubility (solids (g)/ final volume (ml)) (listed as 1 hour reflux in absolute ethanol): 40%
2 | C=C1C[C@@]23CC[C@H]4[C@@](C)(CCC[C@@]4(C)C(=O)O[C@@H]4O[C@H](CO)[C@@H](O)[C@H](O)[C@H]4O)[C@@H]2CC[C@]1(O[C@@H]1O[C@H](CO)[C@@H](O)[C@H](O[C@@H]2O[C@H](CO)[C@@H](O)[C@H](O)[C@H]2O)[C@H]1O[C@@H]1O[C@H](CO)[C@@H](O)[C@H](O)[C@H]1O)C3 [15 minute stir in 100% ethanol, rebaudioside A] | 33% |  | % Solubility (solids (g)/ final volume (ml)) (listed as 15 minute stirred wash in absolute ethanol): 33%
3 | C=C1C[C@@]23CC[C@H]4[C@@](C)(CCC[C@@]4(C)C(=O)O[C@@H]4O[C@H](CO)[C@@H](O)[C@H](O)[C@H]4O)[C@@H]2CC[C@]1(O[C@@H]1O[C@H](CO)[C@@H](O)[C@H](O[C@@H]2O[C@H](CO)[C@@H](O)[C@H](O)[C@H]2O)[C@H]1O[C@@H]1O[C@H](CO)[C@@H](O)[C@H](O)[C@H]1O)C3 [Example 6, rebaudioside A] |  |  | solubility in water (at 25° C.): 59.0%
4 | C=C1C[C@@]23CC[C@H]4[C@@](C)(CCC[C@@]4(C)C(=O)O[C@@H]4O[C@H](CO)[C@@H](O)[C@H](O)[C@H]4O)[C@@H]2CC[C@]1(O[C@@H]1O[C@H](CO)[C@@H](O)[C@H](O[C@@H]2O[C@H](CO)[C@@H](O)[C@H](O)[C@H]2O)[C@H]1O[C@@H]1O[C@H](CO)[C@@H](O)[C@H](O)[C@H]1O)C3 [No 100% ethanol treatment, rebaudioside A] | 2% |  | % Solubility (solids (g)/ final volume (ml)) (listed as 99.6% Reb A purity product): 2%
5 | C=C1C[C@@]23CC[C@H]4[C@@](C)(CCC[C@@]4(C)C(=O)O[C@@H]4O[C@H](CO)[C@@H](O)[C@H](O)[C@H]4O)[C@@H]2CC[C@]1(O[C@@H]1O[C@H](CO)[C@@H](O)[C@H](O[C@@H]2O[C@H](CO)[C@@H](O)[C@H](O)[C@H]2O)[C@H]1O[C@@H]1O[C@H](CO)[C@@H](O)[C@H](O)[C@H]1O)C3 [final product, rebaudioside A] |  | ~33% | 
6 | C=C1C[C@@]23CC[C@H]4[C@@](C)(CCC[C@@]4(C)C(=O)O[C@@H]4O[C@H](CO)[C@@H](O)[C@H](O)[C@H]4O)[C@@H]2CC[C@]1(O[C@@H]1O[C@H](CO)[C@@H](O)[C@H](O[C@@H]2O[C@H](CO)[C@@H](O)[C@H](O)[C@H]2O)[C@H]1O[C@@H]1O[C@H](CO)[C@@H](O)[C@H](O)[C@H]1O)C3 [purified rebaudioside A, rebaudioside A] |  | about 33% | 

Source: US20190016747A1, “PURIFIED REBAUDIOSIDE A” (SGF Holdings, LLC, priority 2004, published 2019)
